Legend:
human 5-LOX = target: T1, human 5-LOX (Homo sapiens, UniProt P09917); assay: 5-LOX enzyme activity, fluorescence method (5-HPETE, H2DCFDA); assay type: biochemical; settings: read-out: 5-LO (IC50)
T1 construct: purchased Cayman 60402; host or cells: insect cells (lysate)
T1 sequence (P09917 1-674): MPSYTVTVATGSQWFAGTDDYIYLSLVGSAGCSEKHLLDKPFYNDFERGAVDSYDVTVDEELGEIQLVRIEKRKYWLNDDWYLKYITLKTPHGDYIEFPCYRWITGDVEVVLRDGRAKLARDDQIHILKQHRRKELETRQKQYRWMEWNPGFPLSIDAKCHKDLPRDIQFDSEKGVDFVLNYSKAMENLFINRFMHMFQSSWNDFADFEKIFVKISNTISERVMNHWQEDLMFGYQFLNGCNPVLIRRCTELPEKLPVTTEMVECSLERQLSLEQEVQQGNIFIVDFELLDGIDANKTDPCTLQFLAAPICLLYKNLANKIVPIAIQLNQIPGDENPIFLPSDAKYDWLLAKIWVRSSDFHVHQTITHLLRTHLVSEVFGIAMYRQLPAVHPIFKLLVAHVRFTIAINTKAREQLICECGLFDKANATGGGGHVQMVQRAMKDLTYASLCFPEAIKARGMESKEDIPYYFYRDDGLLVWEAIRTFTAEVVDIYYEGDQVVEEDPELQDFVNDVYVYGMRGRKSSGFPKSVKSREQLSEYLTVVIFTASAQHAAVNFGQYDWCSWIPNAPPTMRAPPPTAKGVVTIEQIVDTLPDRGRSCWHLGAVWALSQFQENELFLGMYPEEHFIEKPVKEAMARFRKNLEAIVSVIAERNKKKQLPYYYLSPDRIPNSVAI
Summary of the method: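 Compound (0.5 nM to 10 uM) pre-incubated 5 min with enzyme; reaction started with ATP (100 uM final) and arachidonic acid (3 uM final). All steps at room temperature, fluorescence read-out.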

[1] = test system: Rat basophilic leukemia (RBL) cells; assay: LTB4 secretion assay in RBL (rat basophilic leukemia cells); assay type: cell-based; settings: Rattus norvegicus, RBL
Summary of the method: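 Cells seeded 2×10^4/well the day before, then pre-incubated 15 min at 37 °C in EMEM/0.5% FBS with compound (5 nM to 100 uM). Stimulation with 2.5 uM arachidonic acid plus 5 uM A23187 (final) for 10 min at 37 °C; LTB4 in supernatant quantified by EIA.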

Structure (SMILES): Cn1c(NCc2ccc(Oc3ccc(Cl)cc3)cc2)nc2ccc(NCC(N)=O)cc21 [Compound 170]
- IC50 (human 5-LOX): < 1 µM
- EC50 [1]: 10 to 20 µM

Structure (SMILES): Cn1c(NCc2ccc(Oc3ncc(Cl)cn3)cc2)nc2ccc(NC(=N)N)cc21 [Compound 441]
- IC50 (human 5-LOX): > 10 µM
- EC50 [1]: > 20 µM

Structure (SMILES): Cn1c(NCc2ccc(Oc3ncc4ccc(Cl)cc4n3)cc2)nc2ccc(NC3COC3)cc21 [Compound 444]
- IC50 (human 5-LOX): < 1 µM
- EC50 [1]: 10 to 20 µM

Structure (SMILES): Cn1c(NCc2ccc(Oc3nc4cc(Cl)ccc4o3)cc2)nc2ccc(NC3COC3)cc21 [Compound 403]
- IC50 (human 5-LOX): < 1 µM
- EC50 [1]: < 10 µM

Structure (SMILES): Cn1c(NCc2ccc(Oc3ccc(OC(F)(F)F)cc3)cc2)nc2ccc(NC3COC3)cc21 [Compound 293]
- IC50 (human 5-LOX): < 1 µM
- EC50 [1]: < 10 µM

Structure (SMILES): Nc1ccc2c(c1)nc(-n1cc(F)cn1)n2CCOc1ccc(OC(F)(F)F)cc1 [Compound 82]
- IC50 (human 5-LOX): > 10 µM
- EC50 [1]: 10 to 20 µM

Structure (SMILES): Cn1c(NCc2ccc(Oc3ncc(Cl)cn3)cc2)nc2ccc(NC3CN(C(=N)N)C3)cc21 [Compound 443]
- IC50 (human 5-LOX): < 1 µM
- EC50 [1]: > 20 µM

Structure (SMILES): Cn1c(NCc2ccc3c(ccn3-c3ccc(Cl)cn3)c2)nc2ccc(NC3COC3)cc21 [Compound 457]
- IC50 (human 5-LOX): < 1 µM
- EC50 [1]: < 10 µM

Structure (SMILES): Cn1c(NCc2ccc(Oc3ccc(Cl)cc3)cc2)nc2ccc(N3CCC3)cc21 [Compound 182]
- IC50 (human 5-LOX): < 1 µM
- EC50 [1]: 10 to 20 µM

Structure (SMILES): Cn1c(NCc2ccc(Oc3ncc4cc(Cl)ccc4n3)cc2)nc2ccc(N)cc21 [Compound 405]
- IC50 (human 5-LOX): < 1 µM
- EC50 [1]: < 10 µM

Structure (SMILES): CN(C)c1nc2ccc(N3CCC(C(=O)c4ccc(Cl)cn4)C3)cc2[nH]1 (stereo not shown) [Compound 230]
- IC50 (human 5-LOX): < 1 µM
- EC50 [1]: < 10 µM

Structure (SMILES): COc1ccc(Oc2ccc(CNc3nc4ccc(N)cc4n3C)cc2)nc1 [Compound 330]
- IC50 (human 5-LOX): < 1 µM
- EC50 [1]: < 10 µM

Structure (SMILES): CC(Nc1nc2ccc(N)cc2n1C)c1ccc(Oc2ccc(Cl)cn2)cc1 (stereo not shown) [Compound 260]
- IC50 (human 5-LOX): < 1 µM
- EC50 [1]: < 10 µM

Structure (SMILES): Cc1ccc(Oc2ccc(CNc3nc4ccc(NC5COC5)cc4n3C)cc2)nn1 [Compound 312]
- IC50 (human 5-LOX): < 1 µM
- EC50 [1]: > 20 µM

Structure (SMILES): CN(C)c1nc2cc(N3CCC(c4nc5ccc(Cl)cc5o4)C3)ccc2[nH]1 (stereo not shown) [Compound 236]
- IC50 (human 5-LOX): < 1 µM
- EC50 [1]: < 10 µM

Structure (SMILES): CCOC(c1ccc(CNc2nc3ccc(N)cc3[nH]2)cc1)c1ccccn1 (stereo not shown) [Compound 188]
- IC50 (human 5-LOX): < 1 µM
- EC50 [1]: > 20 µM

Structure (SMILES): Cn1nccc1-c1ccc(CNc2nc3cc(NC4COC4)ccc3[nH]2)cc1 [Compound 201]
- IC50 (human 5-LOX): < 1 µM
- EC50 [1]: > 20 µM

Structure (SMILES): OCCn1c(NCc2ccc(Oc3ccc(Cl)cn3)cc2)nc2ccc(NC3COC3)cc21 [Compound 257]
- IC50 (human 5-LOX): < 1 µM
- EC50 [1]: < 10 µM

Structure (SMILES): Cn1c(NCc2ccc(Oc3cnc(Cl)cn3)cc2)nc2ccc(N)cc21 [Compound 295]
- IC50 (human 5-LOX): < 1 µM
- EC50 [1]: < 10 µM

Structure (SMILES): CCn1c(NCc2ccc(Oc3ncc(C(F)(F)F)cn3)cc2)nc2ccc(NC3COC3)cc21 [Compound 548]
- IC50 (human 5-LOX): < 1 µM
- EC50 [1]: < 10 µM

Structure (SMILES): CCC(Nc1nc2ccc(NC3COC3)cc2n1C)c1ccc(Oc2ncc(Cl)cn2)cc1 (stereo not shown) [Compound 453]
- IC50 (human 5-LOX): < 1 µM
- EC50 [1]: < 10 µM

Structure (SMILES): Cn1ccnc1CNc1ccc2nc(NCc3ccc(Oc4ncc(Cl)cn4)cc3)n(C)c2c1 [Compound 359]
- IC50 (human 5-LOX): < 1 µM
- EC50 [1]: < 10 µM

Structure (SMILES): Cn1c(NCc2ccc(Oc3ncc(Cl)cn3)cc2)nc2ccc(NCCN3CCOCC3)cc21 [Compound 379]
- IC50 (human 5-LOX): < 1 µM
- EC50 [1]: < 10 µM

Structure (SMILES): Fc1ccc(CNc2nc3cc(NCc4cnc[nH]4)ccc3[nH]2)cc1 [Compound 29]
- IC50 (human 5-LOX): < 1 µM
- EC50 [1]: < 10 µM

Structure (SMILES): Nc1ccc2nc(N3CCC(O)C3)n(Cc3ccc(Oc4ccc(Cl)cc4)cc3)c2c1 (stereo not shown) [Compound 206]
- IC50 (human 5-LOX): < 1 µM
- EC50 [1]: < 10 µM

Structure (SMILES): Cn1c(NCc2ccc(Oc3ncc(Cl)c(C4CC4)n3)cc2)nc2ccc(N)cc21 [Compound 397]
- IC50 (human 5-LOX): < 1 µM
- EC50 [1]: < 10 µM

Structure (SMILES): Cn1c(NCc2ccc3c(ccn3-c3ccc(Cl)cn3)c2)nc2ccc(N)cc21 [Compound 451]
- IC50 (human 5-LOX): < 1 µM
- EC50 [1]: < 10 µM

Structure (SMILES): CN(C)c1nc2ccc(NCc3ccc(C4(C(N)=O)CCOCC4)cc3)cc2[nH]1 [Compound 237]
- IC50 (human 5-LOX): < 1 µM
- EC50 [1]: > 20 µM

Structure (SMILES): Cn1c(NCc2ccc(Oc3ccc(Cl)cc3)cn2)nc2ccc(N)cc21 [Compound 297]
- IC50 (human 5-LOX): < 1 µM
- EC50 [1]: < 10 µM

Structure (SMILES): Nc1cc(Cl)c2nc(N3CCCC3)n(CCOc3ccc(OC(F)(F)F)cc3)c2c1 [Compound 89]
- IC50 (human 5-LOX): < 1 µM
- EC50 [1]: > 20 µM

Structure (SMILES): Cc1cc(Oc2ccc(Cl)cn2)cc(C)c1CNc1nc2ccc(N)cc2n1C [Compound 334]
- IC50 (human 5-LOX): < 1 µM
- EC50 [1]: 10 to 20 µM

Structure (SMILES): Cn1c(NCc2ccc(Oc3ccc4ccc(Cl)cc4n3)cc2)nc2ccc(N)cc21 [Compound 419]
- IC50 (human 5-LOX): < 1 µM
- EC50 [1]: < 10 µM

Structure (SMILES): Nc1cnc2c(c1)nc(N1CCCC1)n2CCOc1ccc(OC(F)(F)F)cc1 [Compound 72]
- IC50 (human 5-LOX): > 10 µM
- EC50 [1]: > 20 µM

Structure (SMILES): Cn1c(NCc2ccc(Oc3ccc(Cl)cn3)cn2)nc2ccc(N)cc21 [Compound 299]
- IC50 (human 5-LOX): < 1 µM
- EC50 [1]: < 10 µM

Structure (SMILES): Cn1c(NCc2ccc(Oc3ccc(C(F)(F)F)cn3)cc2)nc2ccc(N)cc21 [Compound 276]
- IC50 (human 5-LOX): < 1 µM
- EC50 [1]: < 10 µM

Structure (SMILES): Cn1c(N(CCO)Cc2ccc(Oc3ccc(Cl)cn3)cc2)nc2ccc(NC3COC3)cc21 [Compound 318]
- IC50 (human 5-LOX): < 1 µM
- EC50 [1]: > 20 µM

Structure (SMILES): CCn1c(NCc2ccc(Oc3cnc(Cl)cn3)cc2)nc2ccc(Nc3n[nH]c(C)c3Cl)cc21 [Compound 515]
- IC50 (human 5-LOX): > 10 µM
- EC50 [1]: < 10 µM

Structure (SMILES): Cn1c(NC2(c3ccc(Oc4ncc(Cl)cn4)cc3)CC2)nc2ccc(N)cc21 [Compound 472]
- IC50 (human 5-LOX): 1 to 10 µM
- EC50 [1]: < 10 µM

Structure (SMILES): Nc1ccc2nc(NCC(=O)O)n(Cc3ccc(Oc4ccc(Cl)cc4)cc3)c2c1 [Compound 225]
- IC50 (human 5-LOX): < 1 µM
- EC50 [1]: > 20 µM

Structure (SMILES): N#CCCNc1nc2ccc(NC3COC3)cc2n1Cc1ccc(Oc2ccc(Cl)cc2)cc1 [Compound 262]
- IC50 (human 5-LOX): > 10 µM
- EC50 [1]: < 10 µM

Structure (SMILES): CCC(Nc1nc2ccc(NC3COC3)cc2n1C)c1ccc(Oc2ccc(C(F)(F)F)cn2)cc1 (stereo not shown) [Compound 549]
- IC50 (human 5-LOX): < 1 µM
- EC50 [1]: < 10 µM

Structure (SMILES): Nc1ccc2nc(NCc3ccc(C(=O)c4ccccn4)cc3)[nH]c2c1 [Compound 141]
- IC50 (human 5-LOX): < 1 µM
- EC50 [1]: > 20 µM

Structure (SMILES): CCOC(=O)c1coc(-c2ccc(CNc3ccc4[nH]c(N(C)C)nc4c3)cc2)n1 [Compound 218]
- IC50 (human 5-LOX): < 1 µM
- EC50 [1]: < 10 µM

Structure (SMILES): CN(C)CCn1c(NCc2ccc(Oc3ccc(Cl)cn3)cc2)nc2ccc(NC3COC3)cc21 [Compound 332]
- IC50 (human 5-LOX): < 1 µM
- EC50 [1]: < 10 µM

Structure (SMILES): Cn1c(NCc2ccc(Oc3ncc(Cl)c(C4CC4)n3)cc2)nc2ccc(NC3COC3)cc21 [Compound 398]
- IC50 (human 5-LOX): < 1 µM
- EC50 [1]: < 10 µM

Structure (SMILES): Nc1ccc2nc(NCc3ccc(C(O)c4ccccn4)cc3)[nH]c2c1 (stereo not shown) [Compound 139]
- IC50 (human 5-LOX): < 1 µM
- EC50 [1]: > 20 µM

Structure (SMILES): Cn1c(NCc2ccc(Oc3ncc4cc(Cl)ccc4n3)cc2)nc2ccc(NC3COC3)cc21 [Compound 406]
- IC50 (human 5-LOX): < 1 µM
- EC50 [1]: < 10 µM

Structure (SMILES): Cn1c(NCc2ccc(Oc3nccc4cc(Cl)ccc34)cc2)nc2ccc(N)cc21 [Compound 438]
- IC50 (human 5-LOX): < 1 µM
- EC50 [1]: 10 to 20 µM

Structure (SMILES): Cn1c(NCc2ccc(Oc3ccc(Cl)cn3)c(F)c2)nc2ccc(N)cc21 [Compound 267]
- IC50 (human 5-LOX): < 1 µM
- EC50 [1]: < 10 µM

Structure (SMILES): Cn1c(NCc2ccc(Oc3ncc4cccc(Cl)c4n3)cc2)nc2ccc(N)cc21 [Compound 436]
- IC50 (human 5-LOX): < 1 µM
- EC50 [1]: < 10 µM

— patent US11447486B2, “2-amino-benzimidazole derivatives and their use as 5-lipoxygenase and/or prostaglandin E synthase inhibitors” (INSTITUT PASTEUR KOREA, priority 2014, dated 2022)
